Data: ChEMBL document CHEMBL5154727, “Discovery of novel diphenylbutene derivative ferroptosis inhibitors as neuroprotective agents” (Eur J Med Chem, 2022)
Active and inactive are the calls of the source. No cut-off for these calls is given here.

Experiments:
[1] = system: HT-22; assay: Anti-ferroptotic activity against Erastin-induced ferroptosis in […] cells assessed as […] cell viability measured after 24 hrs by MTT assay; assay type: functional, cell-based; conditions: Mus musculus, HT-22, 24 h
[2] = Permeability of the compound in PBS/EtOH buffer (70:30) incubated for 10 hrs by UV plate reader based PAMPA-BBB assay; assay type: ADME; conditions: read-out: permeability
[3] = system: HT-1080; assay: Anti-ferroptotic activity against siRNA-mediated GPX4 knockdown induced ferroptosis in human HT-1080 cells at 1 uM preincubated for 12 hrs in Opti-MEM medium followed by compound addition and measured after 36 hrs; assay type: functional, cell-based
[4] = system: HT-22; assay: Reduction in ROS accumulation in RSL-3 treated […] cells assessed as reduction in fluorescence intensity at 1 uM incubated for 4 hrs by C11-BODIPY staining based confocal laser scanning microscopic analysis; assay type: functional, cell-based; conditions: Mus musculus
[5] = system: HT-22; assay: Anti-ferroptotic activity against RSL-3-induced morphological changes in […] cells assessed as retention of cell morphology at 1 uM measured after 24 hrs; assay type: functional, cell-based; conditions: Mus musculus
[6] = system: HT-22; assay: Cytotoxicity against […] cells at 40 uM; assay type: toxicity, cell-based; conditions: mouse, ht-22, 40 µM
[7] = system: HT-22; assay: Anti-ferroptotic activity against Erastin-induced ferroptosis in […] cells assessed as […] cell viability measured after 24 hrs by MTT assay relative to control; assay type: functional, Mus musculus
[8] = Metal chelating activity assessed as compound-Fe3+ complex formation at 50 uM by UV-Vis spectroscopic analysis
[9] = Metal chelating activity assessed as compound-Fe2+ complex formation at 50 uM by UV-Vis spectroscopic analysis
[10] = system: HT-22; assay: Reduction in ROS accumulation in RSL-3 treated […] cells assessed as reduction in fluorescence intensity at 5 uM incubated for 4 hrs by C11-BODIPY staining based confocal laser scanning microscopic analysis; assay type: functional, cell-based; conditions: Mus musculus
[11] = system: HT-22; assay: Upregulation of FSP1 protein level in […] cells assessed as increase in reduced to oxidized COQ10 ratio measured after 6 hrs by Western blot analysis; assay type: functional, cell-based; conditions: Mus musculus
[12] = system: Rattus norvegicus; assay: Neuroprotective activity against middle cerebral artery occlusion-induced ischemia-reperfusion injury Sprague-Dawley rat model assessed as morphological changes at 20 mg/kg, ip measured after 24 hrs by Nissl staining based assay; assay type: functional, organism-based
[13] = system: Rattus norvegicus; assay: Neuroprotective activity against middle cerebral artery occlusion-induced ischemia-reperfusion injury Sprague-Dawley rat model assessed as reduction in infarct volume at 20 mg/kg, ip measured after 24 hrs by TTC staining based assay; assay type: functional, organism-based
[14] = system: Rattus norvegicus; assay: Neuroprotective activity against middle cerebral artery occlusion-induced ischemia-reperfusion injury Sprague-Dawley rat model assessed as reduction in 4-HNE level at 20 mg/kg, ip measured after 24 hrs by TTC staining based assay; assay type: functional, organism-based
[15] = system: HT-22; assay: Reduction in cytosolic ROS accumulation in RSL-3 treated […] cells incubated for 4 hrs by H2DCFDA fluorescent probe based flow cytometry method; assay type: functional, cell-based; conditions: Mus musculus, dose 1.25-5 µM, DDE = dose-dependent effect
[16] = system: HT-22; assay: Inhibition of RSL-3 induced Ptgs2 mRNA expression in […] cells measured after 4 hrs by quantitative PCR analysis; assay type: functional, cell-based; conditions: Mus musculus, dose 1.25-5 µM
[17] = system: HT-22; assay: Upregulation of FSP1 protein level in […] cells measured after 6 hrs by Western blot analysis; assay type: functional, cell-based; conditions: Mus musculus, dose 1.25-5 µM
[18] = system: Rattus norvegicus; assay: Neuroprotective activity against middle cerebral artery occlusion-induced ischemia-reperfusion injury Sprague-Dawley rat model assessed as reduction in neurobehavioral defects at 20 mg/kg, ip measured after 24 hrs by Longa test; assay type: functional, organism-based
[19] = system: Rattus norvegicus; assay: Neuroprotective activity against middle cerebral artery occlusion-induced ischemia-reperfusion injury Sprague-Dawley rat model assessed as morphological changes at 20 mg/kg, ip measured after 24 hrs by H and E staining-based assay; assay type: functional, organism-based
[20] = system: HT-22; assay: Effect on intracellular Fe2+ level in […] cells assessed as fluorescence intensity at 5 uM measured after 10 hrs by Hoechst/FerroOrange staining based confocal laser microscopy; assay type: functional, cell-based; conditions: Mus musculus
[21] = system: HT-22; assay: Anti-ferroptotic activity against RSL-3 induced ferroptosis in […] cells assessed as inhibition of cell death measured after 24 hrs by MTT assay; assay type: functional, cell-based; conditions: Mus musculus, HT-22, 24 h
[22] = system: Rattus norvegicus; assay: Neuroprotective activity against middle cerebral artery occlusion-induced ischemia-reperfusion injury Sprague-Dawley rat model assessed as reduction in MDA level at 20 mg/kg, ip measured after 24 hrs by TTC staining based assay; assay type: functional, organism-based
[23] = system: HT-22; assay: Anti-ferroptotic activity against RSL-3-induced morphological changes in […] cells assessed as retention of cell morphology measured after 24 hrs; assay type: functional, cell-based; conditions: Mus musculus, dose 1.25-5 µM, DDE = dose-dependent effect
[24] = system: Rattus norvegicus; assay: Neuroprotective activity against middle cerebral artery occlusion-induced ischemia-reperfusion injury Sprague-Dawley rat model assessed as reduction in PTGS2 mRNA expression level at 20 mg/kg, ip measured after 24 hrs by TTC staining based assay; assay type: functional, organism-based
[25] = system: HT-22; assay: Anti-ferroptotic activity against Erastin-induced ferroptosis in […] cells assessed as inhibition of cell death measured after 24 hrs by MTT assay; assay type: functional, cell-based; conditions: Mus musculus, HT-22, 24 h
[26] = system: HT-22; assay: Upregulation of FSP1 mRNA level in […] cells measured after 6 hrs by quantitative PCR analysis; assay type: functional, cell-based; conditions: Mus musculus, dose 1.25-5 µM
[27] = system: HT-1080; assay: Anti-ferroptotic activity against siRNA-mediated GPX4 knockdown induced ferroptosis in human HT-1080 cells at 5 uM preincubated for 12 hrs in Opti-MEM medium followed by compound addition and measured after 36 hrs; assay type: functional, cell-based
[28] = system: HT-22; assay: Reduction in lipid ROS accumulation in RSL-3 treated […] cells incubated for 4 hrs by C11-BODIPY staining based flow cytometric analysis; assay type: functional, cell-based; conditions: Mus musculus, dose 1.25-5 µM, DDE = dose-dependent effect

COc1cc(/C(=C\C=C\c2ccccc2)C(=O)N2CCN(c3ncccn3)CC2)ccc1O
EC50 [1]: > 20 µM
Papp at 10 h [2]: 10.2 ×10⁻⁶ cm/s

O=C(/C(=C/C=C/c1ccccc1)c1ccc(O)cc1)N1CCN(c2ncccn2)CC1
EC50 [1]: > 20 µM
Papp at 10 h [2]: 8.3 ×10⁻⁶ cm/s

CCOC(=O)c1ccc(NC2CCCCC2)c(N)c1
Activity [3]: Active
Activity [4]: Active
Activity [5]: Active

COc1ccc(/C=C/C=C(/C(=O)N2CCN(c3ncccn3)CC2)c2ccccc2)cc1
EC50 [1]: > 20 µM
Papp at 10 h [2]: 15.7 ×10⁻⁶ cm/s

COc1ccc(/C=C/C=C(/C(=O)N2CCN(c3ncccn3)CC2)c2ccccc2)c(OC)c1
EC50 [1]: > 20 µM
Papp at 10 h [2]: 18.9 ×10⁻⁶ cm/s

O=C(/C(=C/C=C/c1ccc(O)cc1)c1ccccc1)N1CCN(c2ncccn2)CC1
EC50 [1]: 12 µM
Activity [6]: Non-Toxic
Papp at 10 h [2]: 5.2 ×10⁻⁶ cm/s
Activity [7]: 81.9%

CC(=O)N(O)CCCCCNC(=O)CCC(=O)N(O)CCCCCNC(=O)CCC(=O)N(O)CCCCCN
Activity [8]: Active
Activity [9]: Active

COc1cc(/C=C/C=C(/C(=O)N2CCN(c3ncccn3)CC2)c2ccc(O)c(OC)c2)ccc1O
EC50 [1]: 4 µM
Papp at 10 h [2]: 5.3 ×10⁻⁶ cm/s
Activity [7]: 79.5%

COc1ccc(/C(=C\C=C\c2ccccc2)C(=O)N2CCN(c3ncccn3)CC2)cc1OC
EC50 [1]: > 20 µM
Papp at 10 h [2]: 16.4 ×10⁻⁶ cm/s

COc1cc(/C=C/C=C(/C(=O)N2CCN(c3ncccn3)CC2)c2ccccc2)ccc1O
Activity [10]: Active
Activity [11]: Active
EC50 [1]: 1.7 µM
Activity [12]: Active
Activity [13]: Active
Activity [14]: Active
Activity [15]: Dde
Papp at 10 h [2]: 15.3 ×10⁻⁶ cm/s
inhibition ([16]; DDE = dose-dependent effect): Dde
Activity [17]: Active
Activity [18]: Active
Activity [19]: Active
Activity [20]: Active
EC50 [21]: 1.7 µM
Activity [22]: Active
Activity [23]: Dde
Activity [24]: Active
EC50 [25]: 1.7 µM
Activity [26]: Active
Activity [7]: 76.7%
Activity [27]: Active
Activity [28]: Dde

COc1cc(/C=C/C=C(/C(=O)N2CCN(c3ncccn3)CC2)c2cccc(O)c2)ccc1O
EC50 [1]: 4.5 µM
Papp at 10 h [2]: 5.2 ×10⁻⁶ cm/s
Activity [7]: 84.2%

O=C(/C(=C/C=C/c1ccccc1)c1cccc(O)c1)N1CCN(c2ncccn2)CC1
EC50 [1]: > 20 µM
Papp at 10 h [2]: 14.5 ×10⁻⁶ cm/s

COc1cccc(/C=C/C=C(/C(=O)N2CCN(c3ncccn3)CC2)c2ccccc2)c1
EC50 [1]: > 20 µM
Papp at 10 h [2]: 10.2 ×10⁻⁶ cm/s

COc1ccccc1/C=C/C=C(/C(=O)N1CCN(c2ncccn2)CC1)c1ccccc1
EC50 [1]: > 20 µM
Papp at 10 h [2]: 13.6 ×10⁻⁶ cm/s

COC(=O)c1ccc([C@H]2c3[nH]c4ccccc4c3C[C@H](C(=O)OC)N2C(=O)CCl)cc1
Activity [4]: Active
inhibition [16]: Active

COc1cccc(OC)c1/C=C/C=C(/C(=O)N1CCN(c2ncccn2)CC1)c1ccccc1
EC50 [1]: > 20 µM

O=C(/C(=C/C=C/c1cccc(O)c1)c1ccccc1)N1CCN(c2ncccn2)CC1
EC50 [1]: > 20 µM
Papp at 10 h [2]: 9.9 ×10⁻⁶ cm/s
